Experimental findings from patent publication US20180099931A1 (AbbVie S.à.r.l., priority 2016, published 2018) are described below.

pEC50: −log10 of the molar value. Where two headings read alike, the source gives them in different places.

This test concerns the target T1, F508delCFTR (Homo sapiens, UniProt P13569, DEL508-508).
T1 construct: expressed in transfected cells; host or cells: CFBE41o- human lung-derived epithelial cells (CFBE4lo-F508delCFTR-HRP), doxycycline-inducible
Put plainly: Cell Surface Expression-Horse Radish Peroxidase (CSE-HRP) Assay.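 On Maximum % activity (with co-corrector): co-corrector and positive control are both the same reference corrector at 2 µM.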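 On Maximum % activity (without co-corrector): percent of the 2 µM on-plate positive control corrector response above DMSO.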 It counts as cell-based. Particulars: for Maximum % activity (with co-corrector) / Emax: maximum at any tested concentration, normalized to on-plate positive control; for Emax: read-out: Maximum % activity (without co-corrector).

Setting [1] is: test compound without co-corrector, read-out: EC50 (without co-corrector).
[2] abbreviates: with co-corrector (2 μM of 3-[(2R,4R)-4-({[1-(2,2-difluoro-1,3-benzodioxol-5-yl)cyclopropyl]carbonyl}amino)-7-methoxy-3,4-dihydro-2H-chromen-2-yl]benzoic acid), read-out: EC50 (with co-corrector).
Setting [3] is: CSE-HRP, test compound without co-corrector, read-out: EC50 (without co-corrector).
[4] abbreviates: CSE-HRP, with co-corrector (2 μM of 3-[(2R,4R)-4-({[1-(2,2-difluoro-1,3-benzodioxol-5-yl)cyclopropyl]carbonyl}amino)-7-methoxy-3,4-dihydro-2H-chromen-2-yl]benzoic acid), read-out: EC50 (with co-corrector).
The mark [5] stands for this setting: CSE-HRP, with co-corrector (2 μM).
Setting [6] is: test compound without co-corrector.
The mark [7] stands for this setting: with co-corrector (2 μM of 3-[(2R,4R)-4-({[1-(2,2-difluoro-1,3-benzodioxol-5-yl)cyclopropyl]carbonyl}amino)-7-methoxy-3,4-dihydro-2H-chromen-2-yl]benzoic acid).

T1 sequence (P13569 with tags, fused parts or gaps DEL508-508): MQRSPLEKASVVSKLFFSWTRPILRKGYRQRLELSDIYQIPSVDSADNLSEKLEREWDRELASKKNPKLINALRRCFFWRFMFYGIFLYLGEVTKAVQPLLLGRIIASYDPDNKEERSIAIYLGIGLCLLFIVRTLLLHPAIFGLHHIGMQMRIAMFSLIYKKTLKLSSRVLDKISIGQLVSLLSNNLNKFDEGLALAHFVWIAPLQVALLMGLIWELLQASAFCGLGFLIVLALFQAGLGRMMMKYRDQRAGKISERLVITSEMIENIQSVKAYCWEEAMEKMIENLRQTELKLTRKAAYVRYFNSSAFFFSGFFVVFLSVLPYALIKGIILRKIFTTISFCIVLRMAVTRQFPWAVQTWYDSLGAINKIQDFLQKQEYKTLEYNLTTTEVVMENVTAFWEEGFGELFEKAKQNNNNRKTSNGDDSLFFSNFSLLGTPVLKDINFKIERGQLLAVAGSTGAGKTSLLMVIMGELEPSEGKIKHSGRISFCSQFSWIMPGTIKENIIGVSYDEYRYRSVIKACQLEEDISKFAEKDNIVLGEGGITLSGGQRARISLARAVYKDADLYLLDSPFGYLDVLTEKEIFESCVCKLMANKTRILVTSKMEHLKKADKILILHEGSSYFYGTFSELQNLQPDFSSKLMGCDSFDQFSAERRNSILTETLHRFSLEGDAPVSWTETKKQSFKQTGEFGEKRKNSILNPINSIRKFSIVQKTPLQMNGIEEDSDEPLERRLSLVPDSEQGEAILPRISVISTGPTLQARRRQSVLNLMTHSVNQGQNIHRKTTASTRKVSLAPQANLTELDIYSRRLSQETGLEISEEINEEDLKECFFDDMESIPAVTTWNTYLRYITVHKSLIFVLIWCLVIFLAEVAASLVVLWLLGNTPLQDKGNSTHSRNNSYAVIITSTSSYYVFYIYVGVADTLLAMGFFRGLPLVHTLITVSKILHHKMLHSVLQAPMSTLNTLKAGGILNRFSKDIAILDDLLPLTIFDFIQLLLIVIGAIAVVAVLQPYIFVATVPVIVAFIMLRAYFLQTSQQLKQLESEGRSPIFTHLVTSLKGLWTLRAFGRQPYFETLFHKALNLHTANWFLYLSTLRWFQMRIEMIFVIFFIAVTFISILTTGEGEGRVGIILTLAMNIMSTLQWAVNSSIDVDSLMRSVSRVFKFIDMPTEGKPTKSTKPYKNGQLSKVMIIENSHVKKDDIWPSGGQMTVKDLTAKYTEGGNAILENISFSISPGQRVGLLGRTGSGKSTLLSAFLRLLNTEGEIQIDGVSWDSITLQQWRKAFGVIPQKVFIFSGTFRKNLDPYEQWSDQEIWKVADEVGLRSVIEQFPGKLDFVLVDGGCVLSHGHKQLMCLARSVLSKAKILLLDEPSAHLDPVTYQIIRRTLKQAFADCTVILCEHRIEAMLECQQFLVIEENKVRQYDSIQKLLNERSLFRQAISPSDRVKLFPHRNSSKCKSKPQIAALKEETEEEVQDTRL

Turning to `COc1ccc(C(C)(C)C)cc1CN[C@H]1[C@H](C(C)(C)C)[C@@H](C(=O)O)N(C(=O)[C@@H]2OCC[C@@H]2C(C)C)[C@H]1c1ccccc1` (relative stereo) [Example I-104, (2S,3S,4S,5S)-3-tert-butyl-4-{[(5-tert-butyl-2-methoxyphenyl)methyl]amino}-5-phenyl-1-[(2R*,3R*)-3-(propan-2-yl)oxolane-2-carbonyl]pyrrolidine-2-carboxylic acid], the pEC50 reads like this: under setting [1], 5.00 to 6.00; under setting [2], 5.00 to 6.00. The “Maximum % activity (with co-corrector)” value (with co-corrector (2 μM)) is reported as “+++ (≥350)”. Further, under “without co-corrector”, the Emax lay within 100 to 200%.

Consider `COc1ccc(C(F)(F)F)cc1CN[C@@H]1[C@@H](C(C)(C)C)[C@H](C(=O)O)N(C(=O)OC(C)C)[C@@H]1c1ccccc1N(C)C` (racemic) [II-56], for which the pEC50 is, setting by setting: under setting [3], 5.00 to 6.00; under setting [4], 5.00 to 6.00. The “Maximum % activity (with co-corrector)” value under setting [5] is listed as “+++ (≥350)”. For the same compound, the Emax (CSE-HRP, without co-corrector) was in the range of 100 to 200%.

Turning to `COc1ccc(C(C)(C)C)cc1CN[C@H]1[C@H](C(C)(C)OC)[C@@H](C(=O)O)N(C(=O)C2CCCCC2)[C@H]1c1ccccc1` [Example I-61], the pEC50 is 5.00 to 6.00 under setting [1] and > 6.00 under setting [2]. Besides, under “with co-corrector (2 μM)”, the “Maximum % activity (with co-corrector)” value is reported as “+++ (≥350)”. Also, the Emax (without co-corrector) is > 200%.

On to `COc1ncc(C(F)(F)F)cc1CN[C@H]1[C@H](C(C)(C)C)[C@@H](C(=O)O)N(C(=O)[C@@H]2CCCC(F)(F)C2)[C@H]1c1cccnc1OC` [II-572], for which the Emax under setting [6] fell in the range of 100 to 200%. The pEC50 reads like this: under setting [1], 5.00 to 6.00; under setting [2], > 6.00. The “Maximum % activity (with co-corrector)” value under setting [7] was “+++ (≥350)”.

With `COc1cc(C(F)(F)F)ccc1CN[C@H]1[C@H](C(C)(C)C)[C@@H](C(=O)O)N(C(=O)C2CCCCC2)[C@H]1c1ccccc1OC(F)F` [Example I-43], the negative-log EC50 (pEC50) reads like this: under setting [1], 5.00 to 6.00; under setting [2], 5.00 to 6.00. Also, the “Maximum % activity (with co-corrector)” value (with co-corrector (2 μM)) was “+++ (≥350)”. Moreover, for the setting “without co-corrector”, the Emax is < 100%.

With `CCc1cc2ccc(Cl)cc2nc1N[C@H]1[C@H](C(C)(C)C)[C@@H](C(=O)O)N(C(=O)C2CCCCC2)[C@H]1c1ccccc1` [III-149], the Emax under setting [6] was in the range of 100 to 200%. Besides, the pEC50 under setting [1] is 5.00 to 6.00 and the pEC50 under setting [2] is 5.00 to 6.00. Moreover, the “Maximum % activity (with co-corrector)” value (with co-corrector (2 μM)) is recorded as “+++ (≥350)”.

In the case of `COc1ccc(C(F)(F)F)cc1CN[C@H]1[C@H](C(C)(C)C)[C@@H](C(=O)O)N(C(=O)C2CCCCC2)[C@H]1c1cccnc1N(C)C` [Example I-53], the pEC50 reads like this: under setting [1], 5.00 to 6.00; under setting [2], 5.00 to 6.00. Also, the “Maximum % activity (with co-corrector)” value (with co-corrector (2 μM)) was “+++ (≥350)”. Moreover, under “without co-corrector”, the Emax lay in the range of 100 to 200%.

Take `COc1cc(C(F)(F)F)ccc1CN[C@@H]1[C@@H](C(C)(C)C)[C@H](C(=O)O)N(C(=O)C(C)Oc2ccccc2)[C@@H]1c1ccccc1` (single isomer, unassigned) [II-58]: the negative logarithm of the EC50 (pEC50) under setting [3] is 5.00 to 6.00 and the negative logarithm of the EC50 (pEC50) under setting [4] is 5.00 to 6.00. The “Maximum % activity (with co-corrector)” value under setting [5] is “++ (≥150 and <350)”. The Emax (CSE-HRP, without co-corrector) was < 100%.

Regarding `Cc1cc(C(F)(F)F)cc(N[C@@H]2[C@@H](C3CC3)[C@H](C(=O)O)N(C(=O)C3CCCCC3)[C@@H]2c2ccccc2)n1` (racemic) [Example I-7], the pEC50 under setting [1] was 5.00 to 6.00 and the pEC50 under setting [2] was 5.00 to 6.00. Besides, the “Maximum % activity (with co-corrector)” value (with co-corrector (2 μM)) is “++ (≥150 and <350)”. Further, the Emax (without co-corrector) is < 100%.

In the case of `CC(C)(C)[C@@H]1[C@@H](NCc2cc(C(F)(F)F)ccc2OCCCS(C)(=O)=O)[C@@H](c2ccccc2)N(C(=O)C2CCCCC2)[C@H]1C(=O)O` (racemic) [III-84], under setting [6], the Emax is < 100%. The pEC50 is, setting by setting: under setting [1], < 5.00; under setting [2], 5.00 to 6.00. Besides, the “Maximum % activity (with co-corrector)” value under setting [7] is given as “+ (<150)”.

As to `COc1cnc(N2CCCC2)cc1CN[C@H]1[C@H](C(C)(C)C)[C@@H](C(=O)O)N(C(=O)C2CCCCC2)[C@H]1c1ccccc1` [Example I-212], the pEC50 runs as follows: under setting [1], 5.00 to 6.00; under setting [2], 5.00 to 6.00. For the same compound, for the setting “with co-corrector (2 μM)”, the “Maximum % activity (with co-corrector)” value is “++ (≥150 and <350)”. Where the note is “without co-corrector”, the Emax was < 100%.

As for `COc1ncc(-c2ccc(F)cc2F)cc1CN[C@H]1[C@H](C(C)(C)C)[C@@H](C(=O)O)N(C(=O)C2CCCCC2)[C@H]1c1ccccc1` [II-344], the Emax under setting [6] fell in the range of 100 to 200%. Further, the pEC50 runs as follows: under setting [1], 5.00 to 6.00; under setting [2], > 6.00. Also, the “Maximum % activity (with co-corrector)” value under setting [7] is given as “+++ (≥350)”.

Take `COc1ccc(C(F)(F)F)cc1CN[C@H]1[C@H](C(C)(C)C)[C@@H](C(=O)O)N(C(=O)C2(S(C)(=O)=O)CC2)[C@H]1c1ccccc1` [III-137]: the Emax under setting [6] is < 100%. Moreover, the pEC50 runs as follows: under setting [1], 5.00 to 6.00; under setting [2], 5.00 to 6.00. Also, the “Maximum % activity (with co-corrector)” value (with co-corrector (2 μM)) is “++ (≥150 and <350)”.

On to `COc1ncc(C(F)(F)F)cc1CN[C@H]1[C@H](C(C)(C)C)[C@@H](C(=O)O)N(C(=O)C2CCCCC2)[C@H]1c1ccccc1C` [Example I-258], for which the pEC50 reads like this: under setting [3], > 6.00; under setting [4], > 6.00. Besides, the “Maximum % activity (with co-corrector)” value under setting [5] was “+++ (≥350)”. Further, the Emax (CSE-HRP, without co-corrector) was in the range of 100 to 200%.

Regarding `CCOc1ccc(Br)cc1CN[C@H]1[C@H](C(C)(C)C)[C@@H](C(=O)O)N(C(=O)C2CCCCC2)[C@H]1c1ccccc1` [II-126], the pEC50 runs as follows: under setting [3], 5.00 to 6.00; under setting [4], 5.00 to 6.00. Under setting [5], the “Maximum % activity (with co-corrector)” value is given as “+++ (≥350)”. Further, the Emax (CSE-HRP, without co-corrector) lay within 100 to 200%.

Turning to `COc1ncc(C2CCCC2)cc1CN[C@H]1[C@H](C(C)(C)C)[C@@H](C(=O)O)N(C(=O)C2CCCCC2)[C@H]1c1ccccc1` [Example I-73], the pEC50 reads like this: under setting [1], > 6.00; under setting [2], > 6.00. In addition, the “Maximum % activity (with co-corrector)” value (with co-corrector (2 μM)) is on record as “+++ (≥350)”. In addition, the Emax (without co-corrector) is > 200%.

Regarding `COc1ncc(-c2ccccc2F)cc1CN[C@H]1[C@H](C(C)(C)C)[C@@H](C(=O)O)N(C(=O)C2CCCCC2)[C@H]1c1ccccc1F` [II-424], the Emax under setting [6] lay in the range of 100 to 200%. Also, the pEC50 reads like this: under setting [1], > 6.00; under setting [2], > 6.00. For the same compound, the “Maximum % activity (with co-corrector)” value under setting [7] is “+++ (≥350)”.

On to `COc1ccc(C(C)(C)C)cc1CN[C@H]1[C@H](C(C)(C)C)[C@@](C)(C(=O)O)N(C(=O)C2CCCCC2)[C@H]1c1ccccc1` (racemic) [Example I-211], for which the pEC50 runs as follows: under setting [1], < 5.00; under setting [2], 5.00 to 6.00. For the same compound, the “Maximum % activity (with co-corrector)” value (with co-corrector (2 μM)) is on record as “+ (<150)”. Besides, the Emax (without co-corrector) is < 100%.

Take `COc1ccc(OC)c(CN[C@@H]2[C@@H](C(C)(C)C)[C@H](C(=O)O)N(C(=O)C3CCCCC3)[C@@H]2c2ccccc2)c1` (racemic) [III-11]: under setting [6], the Emax is < 100%. In addition, the pEC50 is, setting by setting: under setting [1], 5.00 to 6.00; under setting [2], 5.00 to 6.00. Further, under setting [7], the “Maximum % activity (with co-corrector)” value was “++ (≥150 and <350)”.

As for `COc1ccc(C(C)(C)C)cc1CN[C@H]1[C@H](C(C)(C)C)[C@@H](C(=O)O)N(C(=O)[C@H]2OCC[C@H]2C)[C@H]1c1ccccc1` (relative stereo) [II-269], the pEC50 was 5.00 to 6.00 under setting [3] and 5.00 to 6.00 under setting [4]. Also, the “Maximum % activity (with co-corrector)” value under setting [5] is recorded as “+++ (≥350)”. Moreover, under “CSE-HRP, without co-corrector”, the Emax is > 200%.

Consider `COc1ncc(C2CCC2)cc1CN[C@H]1[C@H](C(C)(C)C)[C@@H](C(=O)O)N(C(=O)[C@@H]2CCCO2)[C@H]1c1cccnc1N(C)C` [Example I-281], for which the negative-log EC50 (pEC50) is 5.00 to 6.00 under setting [3] and 5.00 to 6.00 under setting [4]. For the same compound, under setting [5], the “Maximum % activity (with co-corrector)” value is listed as “+++ (≥350)”. Besides, where the note is “CSE-HRP, without co-corrector”, the Emax lay within 100 to 200%.
